Where “and” joins values, the source holds several entries; their conditions need not be identical. Equal values may be shown once. Inconclusive results and toxic doses are left out. Cut-off read from the data, not from the text of the source: active = T/C of 150% or more; inactive = T/C below 125%.
Test system: L1210 leukemia ip in BDF1 mice, survival T/C
Experiment: NCI In Vivo Anticancer Drug Screen. Data for tumor model L1210 Leukemia (intraperitoneal) in B6D2F1 (BDF1) mice
Conditions: higher = longer survival
How it was run: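 Ratio derived from survival: compound-dosed mice over vehicle-dosed mice, all bearing a transplantable tumor.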

[1] = endpoint: mean survival time, dose: 100.0 mg/kg/injection, schedule: Q01DX009 (ip), vehicle: saline with Tween-80
[2] = endpoint: mean survival time, dose: 200.0 mg/kg/injection, schedule: Q01DX009 (ip), vehicle: saline with Tween-80
[3] = endpoint: mean survival time, dose: 400.0 mg/kg/injection, schedule: Q01DX009 (ip), vehicle: saline with Tween-80
[4] = endpoint: mean survival time, dose: 100.0 mg/kg/injection, schedule: Q04DX003 (ip), vehicle: Klucel (hydroxypropylcellulose) (HPC)
[5] = endpoint: mean survival time, dose: 200.0 mg/kg/injection, schedule: Q04DX003 (ip), vehicle: Klucel (hydroxypropylcellulose) (HPC)
[6] = endpoint: mean survival time, dose: 100.0 mg/kg/injection, schedule: Q01DX001 (ip), vehicle: saline
[7] = endpoint: mean survival time, dose: 200.0 mg/kg/injection, schedule: Q01DX001 (ip), vehicle: saline
[8] = endpoint: mean survival time, dose: 400.0 mg/kg/injection, schedule: Q01DX001 (ip), vehicle: saline
[9] = endpoint: mean survival time, dose: 100.0 mg/kg/injection, schedule: Q01DX009 (ip), vehicle: Klucel (hydroxypropylcellulose) (HPC)
[10] = endpoint: mean survival time, dose: 200.0 mg/kg/injection, schedule: Q01DX009 (ip), vehicle: Klucel (hydroxypropylcellulose) (HPC)
[11] = endpoint: mean survival time, dose: 400.0 mg/kg/injection, schedule: Q01DX009 (ip), vehicle: Klucel (hydroxypropylcellulose) (HPC)
[12] = endpoint: mean survival time, dose: 25.0 mg/kg/injection, schedule: Q04DX003 (ip), vehicle: Klucel (hydroxypropylcellulose) (HPC)
[13] = endpoint: mean survival time, dose: 50.0 mg/kg/injection, schedule: Q04DX003 (ip), vehicle: Klucel (hydroxypropylcellulose) (HPC)

Measured: T/C

C=CCN(CC=C)/N=N/c1[nH]ncc1C(=O)OCC
inactive: endpoint: mean survival time, dose: 100.0 mg/kg/injection, schedule: Q01DX001 (ip), vehicle: saline with Tween-80 100 % of control | [1] 106 % of control | endpoint: mean survival time, dose: 200.0 mg/kg/injection, schedule: Q01DX001 (ip), vehicle: saline with Tween-80 92 % of control | [2] 100 % of control | endpoint: mean survival time, dose: 400.0 mg/kg/injection, schedule: Q01DX001 (ip), vehicle: saline with Tween-80 101 % of control | [3] 104 % of control

N#Cc1c(F)c(F)c(C#N)c(F)c1F
inactive: endpoint: mean survival time, dose: 1.25 mg/kg/injection, schedule: Q01DX009 (ip), vehicle: Klucel (hydroxypropylcellulose) (HPC) 97 % of control | endpoint: mean survival time, dose: 2.5 mg/kg/injection, schedule: Q01DX009 (ip), vehicle: Klucel (hydroxypropylcellulose) (HPC) 95 % of control | endpoint: mean survival time, dose: 5.0 mg/kg/injection, schedule: Q01DX001 (ip), vehicle: saline 98 % of control | endpoint: mean survival time, dose: 5.0 mg/kg/injection, schedule: Q01DX009 (ip), vehicle: Klucel (hydroxypropylcellulose) (HPC) 103 % of control | endpoint: mean survival time, dose: 10.0 mg/kg/injection, schedule: Q01DX001 (ip), vehicle: saline 102 % of control | endpoint: mean survival time, dose: 10.0 mg/kg/injection, schedule: Q01DX009 (ip), vehicle: Klucel (hydroxypropylcellulose) (HPC) 104 % of control

O=C(NCCCNC(=O)Nc1cccc(C2=NCCN2)c1)Nc1cccc(C2=NCCN2)c1
inactive: endpoint: mean survival time, dose: 8.0 mg/kg/injection, schedule: Q01DX Z (ip), vehicle: carboxymethylcellulose (CMC) 104 % of control | endpoint: mean survival time, dose: 16.0 mg/kg/injection, schedule: Q01DX Z (ip), vehicle: carboxymethylcellulose (CMC) 111 % of control | endpoint: mean survival time, dose: 32.0 mg/kg/injection, schedule: Q01DX Z (ip), vehicle: carboxymethylcellulose (CMC) 104 % of control | endpoint: mean survival time, dose: 64.0 mg/kg/injection, schedule: Q01DX Z (ip), vehicle: carboxymethylcellulose (CMC) 94 % of control

NC(=O)C1OC(CO)C(O)C1O (stereo not drawn)
inactive: endpoint: mean survival time, dose: 100.0 mg/kg/injection, schedule: Q04DX003 (ip), vehicle: saline with Tween-80 105 % of control | endpoint: mean survival time, dose: 200.0 mg/kg/injection, schedule: Q04DX003 (ip), vehicle: saline with Tween-80 94 % of control | endpoint: mean survival time, dose: 400.0 mg/kg/injection, schedule: Q04DX003 (ip), vehicle: saline with Tween-80 94 % of control

CC12CCC(=O)C=C1CCC1C2CCC2(C)C1CCC2[N+](C)(C)C (stereo not drawn)
inactive: endpoint: mean survival time, dose: 75.0 mg/kg/injection, schedule: Q01DX001 (ip), vehicle: other 108 % of control

O=S(=O)(Nc1ccc(Cl)cc1Cl)c1ccccc1
inactive: [4] 103 % of control | [5] 103 % of control | endpoint: mean survival time, dose: 400.0 mg/kg/injection, schedule: Q04DX003 (ip), vehicle: Klucel (hydroxypropylcellulose) (HPC) 103 % of control

NC(CC(=O)N/C=N\O)C(=O)O (stereo not drawn)
inactive: endpoint: mean survival time, dose: 50.0 mg/kg/injection, schedule: Q01DX001 (ip), vehicle: saline 98 % of control | [6] 102 % of control | [7] 104 % of control | [8] 104 % of control

CCOC(=O)c1cnc2ccccc2c1Cl
inactive: [6] 103 % of control and 87 % of control | [7] 105 % of control | [8] 103 % of control

CSc1ncnc2c1c(Br)cn2C1OC(CO)C(O)C1O (stereo not drawn)
inactive: [6] 100 % of control | [7] 108 % of control | [8] 114 % of control

Nc1c(Br)cc(I)cc1C(=O)O
inactive: endpoint: mean survival time, dose: 100.0 mg/kg/injection, schedule: Q04DX002 (ip), vehicle: Klucel (hydroxypropylcellulose) (HPC) 108 % of control | endpoint: mean survival time, dose: 200.0 mg/kg/injection, schedule: Q04DX002 (ip), vehicle: Klucel (hydroxypropylcellulose) (HPC) 93 % of control | endpoint: mean survival time, dose: 400.0 mg/kg/injection, schedule: Q04DX002 (ip), vehicle: Klucel (hydroxypropylcellulose) (HPC) 104 % of control

BrC1CCC(Br)C(Br)CCC1Br (stereo not drawn)
inactive: endpoint: mean survival time, dose: 100.0 mg/kg/injection, schedule: Q01DX001 (ip), vehicle: Klucel (hydroxypropylcellulose) (HPC) 101 % of control | [9] 104 % of control | endpoint: mean survival time, dose: 200.0 mg/kg/injection, schedule: Q01DX001 (ip), vehicle: Klucel (hydroxypropylcellulose) (HPC) 97 % of control | [10] 97 % of control | endpoint: mean survival time, dose: 400.0 mg/kg/injection, schedule: Q01DX001 (ip), vehicle: Klucel (hydroxypropylcellulose) (HPC) 95 % of control | [11] 90 % of control

O=C(O)C(Cc1ccccc1)C(=O)O.[NH2-].[NH2-].[Pt+2]
inactive: [12] 102 % of control | [13] 98 % of control | [4] 119 % of control | [5] 104 % of control

CN1CCN(C(c2ccccc2)c2ccccc2)CC1
inactive: endpoint: mean survival time, dose: 3.12 mg/kg/injection, schedule: Q01DX009 (ip), vehicle: Klucel (hydroxypropylcellulose) (HPC) 97 % of control | endpoint: mean survival time, dose: 6.25 mg/kg/injection, schedule: Q01DX009 (ip), vehicle: Klucel (hydroxypropylcellulose) (HPC) 102 % of control | endpoint: mean survival time, dose: 12.5 mg/kg/injection, schedule: Q01DX009 (ip), vehicle: Klucel (hydroxypropylcellulose) (HPC) 97 % of control | endpoint: mean survival time, dose: 25.0 mg/kg/injection, schedule: Q01DX009 (ip), vehicle: Klucel (hydroxypropylcellulose) (HPC) 108 % of control | [12] 97 % of control | endpoint: mean survival time, dose: 50.0 mg/kg/injection, schedule: Q01DX009 (ip), vehicle: Klucel (hydroxypropylcellulose) (HPC) 103 % of control | [13] 92 % of control

CCCNC(=O)Oc1c(C(C)C)ccc(C)c1Cl
inactive: [1] 108 % of control | [2] 88 % of control | [3] 95 % of control

C=C(C)C1(Cc2ccccc2)C(=O)NC(=O)NC1=O
inactive: endpoint: mean survival time, dose: 75.0 mg/kg/injection, schedule: Q01DX001 (ip), vehicle: saline 98 % of control

Nc1cc2nc3ccccc3sc-2cc1=O
inactive: endpoint: median survival time, dose: 50.0 mg/kg/injection, schedule: Q01DX001 (ip), vehicle: Klucel (hydroxypropylcellulose) (HPC) 100 % of control | endpoint: median survival time, dose: 50.0 mg/kg/injection, schedule: Q01DX001 (oral), vehicle: Klucel (hydroxypropylcellulose) (HPC) 105 % of control | endpoint: median survival time, dose: 50.0 mg/kg/injection, schedule: Q01DX009 (ip), vehicle: Klucel (hydroxypropylcellulose) (HPC) 102 % of control | endpoint: median survival time, dose: 50.0 mg/kg/injection, schedule: Q01DX009 (oral), vehicle: Klucel (hydroxypropylcellulose) (HPC) 114 % of control | endpoint: median survival time, dose: 50.0 mg/kg/injection, schedule: Q04DX003 (ip), vehicle: Klucel (hydroxypropylcellulose) (HPC) 101 % of control | endpoint: median survival time, dose: 100.0 mg/kg/injection, schedule: Q01DX001 (ip), vehicle: Klucel (hydroxypropylcellulose) (HPC) 93 % of control | endpoint: median survival time, dose: 100.0 mg/kg/injection, schedule: Q01DX001 (oral), vehicle: Klucel (hydroxypropylcellulose) (HPC) 105 % of control | endpoint: median survival time, dose: 100.0 mg/kg/injection, schedule: Q01DX009 (ip), vehicle: Klucel (hydroxypropylcellulose) (HPC) 97 % of control | endpoint: median survival time, dose: 100.0 mg/kg/injection, schedule: Q01DX009 (oral), vehicle: Klucel (hydroxypropylcellulose) (HPC) 114 % of control | endpoint: median survival time, dose: 100.0 mg/kg/injection, schedule: Q04DX003 (ip), vehicle: Klucel (hydroxypropylcellulose) (HPC) 94 % of control | endpoint: median survival time, dose: 200.0 mg/kg/injection, schedule: Q01DX001 (ip), vehicle: Klucel (hydroxypropylcellulose) (HPC) 96 % of control | endpoint: median survival time, dose: 200.0 mg/kg/injection, schedule: Q01DX001 (oral), vehicle: Klucel (hydroxypropylcellulose) (HPC) 106 % of control | endpoint: median survival time, dose: 200.0 mg/kg/injection, schedule: Q01DX009 (ip), vehicle: Klucel (hydroxypropylcellulose) (HPC) 102 % of control | endpoint: median survival time, dose: 200.0 mg/kg/injection, schedule: Q01DX009 (oral), vehicle: Klucel (hydroxypropylcellulose) (HPC) 113 % of control | endpoint: median survival time, dose: 200.0 mg/kg/injection, schedule: Q04DX003 (ip), vehicle: Klucel (hydroxypropylcellulose) (HPC) 101 % of control | endpoint: median survival time, dose: 400.0 mg/kg/injection, schedule: Q01DX001 (ip), vehicle: Klucel (hydroxypropylcellulose) (HPC) 96 % of control | endpoint: median survival time, dose: 400.0 mg/kg/injection, schedule: Q01DX001 (oral), vehicle: Klucel (hydroxypropylcellulose) (HPC) 110 % of control | endpoint: median survival time, dose: 400.0 mg/kg/injection, schedule: Q01DX009 (ip), vehicle: Klucel (hydroxypropylcellulose) (HPC) 97 % of control | endpoint: median survival time, dose: 400.0 mg/kg/injection, schedule: Q01DX009 (oral), vehicle: Klucel (hydroxypropylcellulose) (HPC) 112 % of control | endpoint: median survival time, dose: 400.0 mg/kg/injection, schedule: Q04DX003 (ip), vehicle: Klucel (hydroxypropylcellulose) (HPC) 94 % of control

COc1cccc(NC(=O)c2cccc(C(=O)Nc3cccc(OC)c3)c2)c1
inactive: [9] 94 % of control | [10] 91 % of control | [11] 86 % of control

CC(=O)C1=C(C)NC(C)=C(C(C)=O)C1C
inactive: endpoint: mean survival time, dose: 55.0 mg/kg/injection, schedule: Q01DX Z (ip), vehicle: saline 97 % of control | endpoint: mean survival time, dose: 83.0 mg/kg/injection, schedule: Q01DX Z (ip), vehicle: saline 95 % of control | endpoint: mean survival time, dose: 125.0 mg/kg/injection, schedule: Q01DX Z (ip), vehicle: saline 100 % of control

Source: PubChem BioAssay AID248 (DTP/NCI, 2004)
